Assay [1] has as its target T1, YvcK (Bacillus subtilis, UniProt O06974).
T1 construct: gene mgfK; His6-tagged YvcK
The assay is described as follows: thermal shift assay (SYPRO Orange) with apparent KD; limited trypsin proteolysis. The format is binding.

Assay [2] addresses T1, YvcK. Description: thermal shift assay (SYPRO Orange) with apparent KD. The format is binding.

T1 sequence (O06974 whole entry): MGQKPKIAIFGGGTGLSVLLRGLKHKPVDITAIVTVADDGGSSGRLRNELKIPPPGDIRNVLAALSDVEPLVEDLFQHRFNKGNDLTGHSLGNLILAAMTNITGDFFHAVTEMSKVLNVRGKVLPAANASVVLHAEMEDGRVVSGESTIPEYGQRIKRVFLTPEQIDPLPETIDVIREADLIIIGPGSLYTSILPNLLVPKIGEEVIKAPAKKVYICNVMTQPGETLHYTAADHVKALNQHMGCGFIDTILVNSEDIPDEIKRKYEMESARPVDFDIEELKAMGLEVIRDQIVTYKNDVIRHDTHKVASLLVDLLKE

Consider `CC(=O)N[C@H]1[C@@H](OP(=O)(O)OP(=O)(O)OC[C@H]2O[C@@H](n3ccc(=O)[nH]c3=O)[C@H](O)[C@@H]2O)O[C@H](CO)[C@@H](O)[C@@H]1O` [UDP-GlcNAc], for which, at YvcK [1], the Kd stood at 0.41 ± 0.24 mM. As for `O=c1ccn([C@@H]2O[C@H](COP(=O)(O)OP(=O)(O)O)[C@@H](O)[C@H]2O)c(=O)[nH]1` [UDP], the Kd on YvcK [2] was 6.21 ± 0.62 mM.

The record behind these values is PMC5482804, “YvcK, a protein required for cell wall integrity and optimal carbon source utilization, binds uridine diphosphate-sugars” (Scientific Reports, 2017).
